How the values were obtained:
membrane protein AqpZ [1] = molecular target: T1, membrane protein AqpZ (Escherichia coli, UniProt P60844); assay: nano-electrospray ionization mass spectrometry of AqpZ in detergent (FIG. 9); design: made in house; host or cells: bacterial culture (LB broth, ampicillin); conditions: nESI, Q Exactive
Method: The samples were analysed using a Q-Exactive mass spectrometer using the following instrumental parameters: • Injection flatapole: 7.9 V • Inter flatapole lens: 6.9 V • Bent flatapole: 5.9 V • Transfer multipole: 4 V • Capillary voltage: 1.2 kV • Source temperature: 100° C. • Voltage applied to the C-trap entrance lens: 5.8 V • In-source trapping voltage: 0-200 V • Higher-energy collisional dissociation (HCD) cell voltage: 100-200 V • HCD cell pressure: 9×10^−10 mBar • Noise level parameter: 3 • Microscans: 10 • Resolution: 17,500
The suitability of the hybrid detergent in nano-electrospray ionization was investigated using a Q Exactive mass spectrometer. The results are shown in FIG. 9, along with results obtained using DDM and C8E4.

membrane protein AqpZ [2] = molecular target: T1, membrane protein AqpZ; assay: Stability of AqpZ in detergent solution after extraction from native membrane and IMAC; design: made in house; conditions: extraction with 1% w/v detergent solution, IMAC purification
Method: Different solutions of the membrane protein AqpZ were prepared by extracting the protein from its native membrane using a 1% w/v detergent solution and then purifying the samples using IMAC. The following solutions were prepared: one containing the hybrid detergent, one containing DDM, one containing C8E4 and one containing a mixture of C8E4 and DDM. AgpZ precipitated from the solutions containing C8E4, even when DDM was also present.

T1 sequence (P60844 whole entry): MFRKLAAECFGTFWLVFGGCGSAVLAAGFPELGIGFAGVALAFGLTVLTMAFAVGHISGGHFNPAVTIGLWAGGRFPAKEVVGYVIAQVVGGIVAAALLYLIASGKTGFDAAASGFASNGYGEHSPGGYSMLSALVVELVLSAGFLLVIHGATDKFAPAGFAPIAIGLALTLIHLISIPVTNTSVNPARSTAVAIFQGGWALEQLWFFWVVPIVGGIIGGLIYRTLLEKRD

For CCCCCCCCCCCCOCC(COCCOCCOCCOCCO)Oc1ccc(OCCOC2OC(CO)C(C3OC(CO)C(O)C(O)C3O)C(O)C2O)cc1 (stereo not drawn), the “lipid-bound states of AqpZ detected” value (membrane protein AqpZ [1]) was “detected” and the “stability of AqpZ in detergent solution” value (membrane protein AqpZ [2]) was “stable”.

In the case of CCCCCCCCOCCOCCOCCOCCO [C8E4, tetraethylene glycol monooctyl ether], the “level of delipidation of AqpZ” value (membrane protein AqpZ [1]) is reported as “fully delipidating” and the “stability of AqpZ in detergent solution” value (membrane protein AqpZ [2]) is reported as “precipitated”.

For CCCCCCCCCCCCO[C@@H]1O[C@H](CO)[C@@H](O[C@H]2O[C@H](CO)[C@@H](O)[C@H](O)[C@H]2O)[C@H](O)[C@H]1O [DDM, n-dodecyl-β-D-maltoside], the “level of delipidation of AqpZ” value (membrane protein AqpZ [1]) was “relatively low levels of delipidation” and the “lipid-bound states of AqpZ detected” value (membrane protein AqpZ [1]) was “detected”.

From patent US20240264164A1, “DETERGENTS AND METHODS” (OXFORD UNIVERSITY INNOVATION LIMITED, priority 2021, published 2024)
